In patent publication US8288342B2, “Methods for treating vasomotor symptoms in castrated prostatic cancer patients with low dose cyproterone acetate” (priority 2008, dated 2012):

Legend:
[1] = Same Phase 2 trial: adverse events and discontinuation; assay type: in vivo, human
Source text: The overall study duration for each subject was approximately 19 weeks, which included a screening period of up to 4 weeks, a one-week placebo run-in period, a 12-week double-blind period, and a follow-up telephone call two weeks after the last dose of study medication.
After providing informed consent on the first day of the screening period, all subjects had medical and hot flash history recorded, a physical examination, a chest x-ray and Doppler to assess known thromboembolic risk factors, an ECG to evaluate cardiac risks, and clinical laboratory evaluations. Once all results of tests conducted during the screening period were obtained, subjects who met all of the inclusion criteria and none of the exclusion criteria were eligible to enter the one-week, single-blind, placebo run-in period. […] After beginning study medication, subjects returned for study visits at weeks 2, 4, 8, and 12. Two weeks after the final treatment visit, a telephone follow-up call was conducted to record and evaluate adverse events (“AE”s) since the last study visit.

[2] = over 2500 patients, long-term use; men 100 to 200 or more than 200 mg/day; cited from earlier work
[3] = system: post-orchiectomy hot flashes in prostate cancer subjects; conditions: CPA 300 mg daily, 3 weeks, 12 post-orchiectomy subjects; cited from earlier work
[4] = Prior study of 50 mg and 100 mg CPA: discontinuation rates; assay type: in vivo, human
Procedure: The results of this study were compared with results from a prior study in which the efficacy of 50 mg and 100 mg of CPA was investigated. Efficacy data for the 50 mg and 100 mg studies showing a reduction in average daily number of moderate to severe hot flashes, and a reduction in average severity of hot flashes is shown in FIGS. 6 and 7, respectively. A comparison of the percent of patients with complete disappearance of all hot flashes at 12 weeks of treatment across studies is shown in Table 10.

hot flashes = conditions: 37 subjects with bothersome hot flashes; cited from earlier work
[5] = Same Phase 2 trial: cyproterone acetate and 15β-OH cyproterone acetate concentrations by treatment and visit; assay type: in vivo, human; conditions: 5 mg/day, 15 mg/day and 25 mg/day
Procedure: FIG. 3 depicts schematically the analysis of cyproterone acetate and 15β-OH cyproterone acetate (a breakdown product of cyproterone acetate that contributes to the effectiveness of the drug) concentration in the patients who were treated.

[6] = system: hot flashes and outbreaks of sweating after orchiectomy; conditions: CPA 150 mg daily, cited from earlier work
[7] = system: quality of life of prostate cancer patients; conditions: 367 evaluable patients; oral and i.m., doses varied; cited from earlier work

Structure (SMILES): CC(=O)O[C@]1(C(C)=O)CC[C@H]2[C@@H]3C=C(Cl)C4=CC(=O)[C@@H]5C[C@@H]5[C@]4(C)[C@H]3CC[C@@]21C [CPA, cyproterone acetate]
- 12-week double-blind discontinuation due to Adverse Event, number ([1]; CPA 5 mg (N = 81)): 2
- 12-week double-blind discontinuation rate due to Adverse Event ([1]; CPA 5 mg (N = 81)): (2.5%)
- Treatment-emergent AE Constipation, % ([1]; CPA 5 mg (N = 81)): 0.00%
- Treatment-emergent AE Depression, % ([1]; CPA 5 mg (N = 81)): 1.23%
- Treatment-emergent AE Diarrhoea, % ([1]; CPA 5 mg (N = 81)): 2.47%
- Treatment-emergent AE Dizziness, % ([1]; CPA 5 mg (N = 81)): 2.47%
- Treatment-emergent AE Dyspnoea, % ([1]; CPA 5 mg (N = 81)): 3.70%
- Treatment-emergent AE Fatigue, % ([1]; CPA 5 mg (N = 81)): 1.23%
- Treatment-emergent AE Headache, % ([1]; CPA 5 mg (N = 81)): 3.70%
- Treatment-emergent AE Influenza, % ([1]; CPA 5 mg (N = 81)): 0.00%
- Treatment-emergent AE Nasopharyngitis, % ([1]; CPA 5 mg (N = 81)): 3.70%
- Treatment-emergent AE Nausea, % ([1]; CPA 5 mg (N = 81)): 0.00%
- Treatment-emergent AE Oedema peripheral, % ([1]; CPA 5 mg (N = 81)): 1.23%
- Treatment-emergent AE Pain in extremity, % ([1]; CPA 5 mg (N = 81)): 3.70%
- Treatment-emergent AE Urinary tract infection, % ([1]; CPA 5 mg (N = 81)): 1.23%
- Treatment-emergent AE Vomiting, % ([1]; CPA 5 mg (N = 81)): 1.23%
- Treatment-related AE Constipation, % ([1]; CPA 5 mg (N = 81)): 0.00%
- Treatment-related AE Dyspnoea, % ([1]; CPA 5 mg (N = 81)): 0.00%
- Proportion of subjects experiencing treatment-emergent AEs, rank among groups ([1]; CPA 5 mg/day vs placebo, 15 and 25 mg/day): fewest proportion of subjects
- 12-week double-blind discontinuation due to Adverse Event, number ([1]; CPA 15 mg (N = 99)): 5
- 12-week double-blind discontinuation rate due to Adverse Event ([1]; CPA 15 mg (N = 99)): (5.1%)
- Treatment-emergent AE Constipation, % ([1]; CPA 15 mg (N = 99)): 6.06%
- Treatment-emergent AE Depression, % ([1]; CPA 15 mg (N = 99)): 4.04%
- Treatment-emergent AE Diarrhoea, % ([1]; CPA 15 mg (N = 99)): 6.06%
- Treatment-emergent AE Dizziness, % ([1]; CPA 15 mg (N = 99)): 7.07%
- Treatment-emergent AE Dyspnoea, % ([1]; CPA 15 mg (N = 99)): 7.07%
- Treatment-emergent AE Fatigue, % ([1]; CPA 15 mg (N = 99)): 6.06%
- Treatment-emergent AE Gynaecomastia, % ([1]; CPA 15 mg (N = 99)): 2.02%
- Treatment-emergent AE Headache, % ([1]; CPA 15 mg (N = 99)): 2.02%
- Treatment-emergent AE Influenza, % ([1]; CPA 15 mg (N = 99)): 1.01%
- Treatment-emergent AE Nasopharyngitis, % ([1]; CPA 15 mg (N = 99)): 3.03%
- Treatment-emergent AE Nausea, % ([1]; CPA 15 mg (N = 99)): 2.02%
- Treatment-emergent AE Oedema peripheral, % ([1]; CPA 15 mg (N = 99)): 1.01%
- Treatment-emergent AE Pain in extremity, % ([1]; CPA 15 mg (N = 99)): 3.03%
- Treatment-emergent AE Urinary tract infection, % ([1]; CPA 15 mg (N = 99)): 0.00%
- Treatment-emergent AE Vomiting, % ([1]; CPA 15 mg (N = 99)): 0.00%
- Treatment-related AE Constipation, % ([1]; CPA 15 mg (N = 99)): 2.02%
- Treatment-related AE Dyspnoea, % ([1]; CPA 15 mg (N = 99)): 4.04%
- 12-week double-blind discontinuation due to Adverse Event, number ([1]; CPA 25 mg (N = 87)): 7
- 12-week double-blind discontinuation rate due to Adverse Event ([1]; CPA 25 mg (N = 87)): (8.0%)
- Treatment-emergent AE Constipation, % ([1]; CPA 25 mg (N = 87)): 3.45%
- Treatment-emergent AE Depression, % ([1]; CPA 25 mg (N = 87)): 1.15%
- Treatment-emergent AE Diarrhoea, % ([1]; CPA 25 mg (N = 87)): 3.45%
- Treatment-emergent AE Dizziness, % ([1]; CPA 25 mg (N = 87)): 4.60%
- Treatment-emergent AE Dyspnoea, % ([1]; CPA 25 mg (N = 87)): 8.05%
- Treatment-emergent AE Fatigue, % ([1]; CPA 25 mg (N = 87)): 1.15%
- Treatment-emergent AE Gynaecomastia, % ([1]; CPA 25 mg (N = 87)): 4.60%
- Treatment-emergent AE Headache, % ([1]; CPA 25 mg (N = 87)): 3.45%
- Treatment-emergent AE Influenza, % ([1]; CPA 25 mg (N = 87)): 3.45%
- Treatment-emergent AE Nasopharyngitis, % ([1]; CPA 25 mg (N = 87)): 5.75%
- Treatment-emergent AE Nausea, % ([1]; CPA 25 mg (N = 87)): 2.30%
- Treatment-emergent AE Oedema peripheral, % ([1]; CPA 25 mg (N = 87)): 5.75%
- Treatment-emergent AE Pain in extremity, % ([1]; CPA 25 mg (N = 87)): 0.00%
- Treatment-emergent AE Urinary tract infection, % ([1]; CPA 25 mg (N = 87)): 3.45%
- Treatment-emergent AE Vomiting, % ([1]; CPA 25 mg (N = 87)): 2.30%
- Treatment-related AE Constipation, % ([1]; CPA 25 mg (N = 87)): 3.45%
- Treatment-related AE Dyspnoea, % ([1]; CPA 25 mg (N = 87)): 4.60%
- Correlation between duration of CPA treatment and prevalence of liver enzyme elevations [2]: No correlation was found
- Frequency of hot flashes [3]: significantly reduced
- 12-week double-blind discontinuation due to Adverse Event, number ([4]; CPA 50 mg (N = 246)): 13
- 12-week double-blind discontinuation rate due to Adverse Event ([4]; CPA 50 mg (N = 246)): (5.3%)
- 12-week double-blind discontinuation due to Adverse Event, number ([4]; CPA 100 mg (N = 245)): 24
- 12-week double-blind discontinuation rate due to Adverse Event ([4]; CPA 100 mg (N = 245)): (9.8%)
- Therapeutic efficacy: reduction in hot flashes (hot flashes): 80%
- Cyproterone acetate and 15β-OH cyproterone acetate concentration in treated patients [5]: dose proportional response
- Frequency and severity in subjects who continued to experience hot flashes or sweating [6]: decreased
- Subjects with outbreaks of sweating ([6]; placebo 47%): 24%
- Subjects experiencing hot flashes ([6]; placebo 61%): 33%
- Evaluable patients with general improvement in subjective assessment of quality of life [7]: 70%
